Data set [1] concerns HIV replication in H9 lymphocytes. On the set-up: method as in PMID 31109016, PMID 10021911. The note with it: cited from earlier work.
Data set [2] deals with HIV-1NL4-3 Nanoluc-sec virus. Kind of data set: microbe, parasite or virus in culture. The class given is cell-based. The following applies: for selective anti-HIV activity (class symbol printed in EC50 column): CC50/EC50 criterion; for EC50: Human immunodeficiency virus 1, NL43, MT4, 72 h, read-out: EC50 (μg/mL) NL4-3. The text has this:
MT4 cells (1 × 10^5 cells mL^−1) in 96 well plates were infected by HIV-1 NL4-3 Nanoluc-sec at a dose of 50 TCID50/well in the presence of each test compound at various concentrations. On Day 3 post-infection, supernatants were collected and assayed for luciferase activity using the Nano-Glo Luciferase Assay System (Promega, Madison, WI, USA). The antiviral potency was defined as the compound concentration that reduces the luciferase activity by 50% (EC50).

Data set [3] relates to HIV. On the set-up: method as in PMID 10757740. The note with it: XTT-tetrazolium assay; cited from earlier work.
Another data set relates to HIV-1. Also on record: method as in PMID 16177980. The following applies: cited from earlier work.
For data set [4], the system named is human immunodeficiency virus type-1 integrase. The following applies: cited from earlier work.
Data set [5] relates to HIV replication in C8166 cells. Also on record: method as in PMID 15771893. The note with it: in vitro; cited from earlier work.
The test system of data set [6] is HIV. The following applies: cited from earlier work.
Data set [7] in a line: CytoTox-Glo cytotoxicity assay against MT4 cells. The note with it: human, 50% cytotoxic concentration, MT-4 cells, read-out: CC50 (μg/mL) MT4. The class given is cell-based. Here is the method: The cytotoxicity of the compound against MT4 cells was assessed using a CytoTox-Glo cytotoxicity assay (Promega, Madison, WI, USA). MT-4 cells were cultured in the presence of various concentrations of each test compound for 3 days, and the 50% cytotoxic concentration (CC50) causing a 50% reduction of cell viability was determined by following the manufacturer’s protocol.

In brackets after ≈: the same amount, converted by molar mass. Where only a bound is given, the exact number is not on record here.

In the case of `COc1cc2c(c3cnccc13)c1ccccc1n2C` [5-methoxy-7-methyl-7H-pyrido[4,3-c]carbazole], the “therapeutic index (TI)” value in data set [1] (H9 lymphocytes) is on record as 503. The “EC50, inhibition of HIV replication in H9 lymphocytes” value in data set [1] was 5.4 ng/mL.

`COc1ccc2c(c1)[nH]c1ccc(C(=O)O)cc12` [Compound 3, clausine N]: in data set [2], the “selective anti-HIV activity (class symbol printed in EC50 column)” value is “*- ^d (no selective anti-HIV activity (CC50/EC50 < 5))”.

`CC(C)=CCc1cc2c(cc1O)[nH]c1ccc(C)cc12` [siamenol]: in the data set on HIV [3], the “HIV-inhibitory activity EC50” value is 2.6 µg/mL and the maximum protection was 50–60%.

For `COc1ccc2c(c1)[nH]c1cc(OC)c(C(=O)O)cc12` [clauszoline-J], in the data set on HIV-1, the “anti-HIV-1 effects EC50” value is reported as 8.2 µg/mL and the “potential therapeutic index (PTI)” value is listed as 1.6.

As for `Cc1cc2c(c3c1[nH]c1cc(Cl)c(O)cc13)C(=O)N(CCN(C)C)C2=O` [8-Chloro-2-[2-(dimethylamino)ethyl]-9-hydroxy-5-methylpyrrolo[3,4-c]carbazole-1,3(2H,6H)-dione], in data set [4], the strand-transfer inhibitory activity entry is listed as “potent strand-transfer inhibitory activity”.

Consider clausine-O [Compound 6], for which, in data set [2], the “selective anti-HIV activity (class symbol printed in EC50 column)” value is reported as “*- ^d (no selective anti-HIV activity (CC50/EC50 < 5))”.

Turning to `Cc1cc2c(cc1O)[nH]c1ccc3c(c12)C=CC(C)(C)O3` [glycoborinine], the “IC50, inhibition of HIV replication in C8166 cells” value in data set [5] is 4.47 µg/mL.

Regarding `C[C@@]1(C(=O)O)[C@@H](O)CC[C@]2(C)c3cc4c(cc3CC[C@@H]12)[nH]c1ccccc14` [xiamycin], in the data set on HIV [6], the anti-HIV activity result was “selective anti-HIV activity”.

In the case of `COc1ccc2c(c1)[nH]c1cc(OC)c(C=O)cc12` [3-formyl-2,7-dimethoxycarbazole], in the data set on HIV-1, the “anti-HIV-1 effects EC50” value is given as 7.4 µg/mL and the “potential therapeutic index (PTI)” value is listed as 8.0.

For `COc1ccc2[nH]c3c(O)cc(C=O)cc3c2c1` [Compound 8, clausine I], the “selective anti-HIV activity (class symbol printed in EC50 column)” value in data set [2] is given as “*- ^d (no selective anti-HIV activity (CC50/EC50 < 5))”.

Consider `Cc1cn([C@H]2C[C@H](N=[N+]=[N-])[C@@H](CO)O2)c(=O)[nH]c1=O` [AZT, azidothymidine], for which, in data set [2], the EC50 came to 0.0055 ± 0.0018 µg/mL (≈ 0.0206 µM). Moreover, the CC50 at 3 days in data set [7] was more than 0.1 µg/mL.

With `COc1ccc(OC)c2c1[nH]c1cc(O)c(C)cc12` [Compound 2, 5,8-dimethoxy-3-methyl-9H-carbazol-2-ol], the EC50 in data set [2] was determined as 3.7 µg/mL (≈ 14.4 µM). The CC50 at 3 days in data set [7] came out at 15.2 ± 3.1 µg/mL (≈ 59.1 µM).

For `COC(=O)c1cc2c(cc1C)[nH]c1ccccc12` [Compound 1, 2-methyl-9H-carbazole-3-methyl carboxylate], the “TI (CC50/EC50; SI in text)” value in data set [2] (CC50 MT4 / EC50 NL4-3) came out at 7.1. Also, the EC50 in data set [2] worked out at 2.4 ± 0.53 µg/mL (≈ 10 µM). The CC50 at 3 days in data set [7] came out at 17 ± 2.5 µg/mL (≈ 71 µM).

As for `O=Cc1ccc2[nH]c3cc(O)ccc3c2c1` [Compound 7, 7-dihydroxy-9H-carbazole-3-carboxaldehyde], in data set [2], the EC50 was more than 25 µg/mL. Moreover, the CC50 at 3 days in data set [7] was more than 25 µg/mL.

`COc1cc2[nH]c3ccccc3c2cc1C=O` [O-methylmukonal]: in the data set with HIV-1, the “anti-HIV-1 effects EC50” value is 2.7 µg/mL and the “potential therapeutic index (PTI)” value is reported as 56.7.

On to `COc1ccc2[nH]c3cc(O)c(C)cc3c2c1CC=C(C)C` [glybomine B], for which, in data set [5], the “IC50, inhibition of HIV replication in C8166 cells” value is 9.73 µg/mL.

`CC1(C)C=Cc2c(c(C=O)cc3c2[nH]c2c(O)cccc23)O1` [Compound 4, heptazolicine]: in data set [2], the “selective anti-HIV activity (class symbol printed in EC50 column)” value is “*- ^d (no selective anti-HIV activity (CC50/EC50 < 5))”.

With `CC1(C)C=Cc2c(ccc3c2[nH]c2cc(O)c(C=O)cc23)O1` [Compound 5, clauszoline B], the “selective anti-HIV activity (class symbol printed in EC50 column)” value in data set [2] was “*- ^d (no selective anti-HIV activity (CC50/EC50 < 5))”.
